Source: patent US12264146B2, “Rho kinase inhibitor, method for preparing same and uses thereof” (BEIJING INCREASE INNOVATIVE DRUG CO., LTD., priority 2018, dated 2025)
Counter-ions that a name gives are not always drawn.

Tests used:
[1] = test system: prostacyclin (PGI2); assay: Expression of prostacyclin (PGI2) in EA.Hy926 endothelial cells, ELISA kit; format: cell-based; conditions: 24 h; for expression of prostacyclin in endothelial cells: Detection result of test compound at low dose (0.4 μM) / expression of prostacyclin in endothelial cells: Detection result of test compound at medium dose (2 μM) / expression of prostacyclin in endothelial cells: Detection result of test compound at high dose (10 μM): EA.Hy926 cell supernatant
Procedure: (§1) Commercially available cytokine kits were used to detect the effects of the compounds of the present application on vascular endothelium-derived contracting factor endothelin, vascular endothelium-derived relaxing factor endothelial nitric oxide synthase, nitric oxide, and prostacyclin factor. The detection was performed according to the kit instructions. When testing the effect of the compound of the present application on cytokines, a normal control group, a fasudil hydrochloride group, and high-, medium- and low-dose groups of the compounds of the present application were set up for testing. The fasudil hydrochloride used in this test example was purchased from Beijing Sihuan Pharmaceutical Co., Ltd., with the SFDA approval number of H20173349. The EA.Hy926 cells used in this test example were purchased from Suzhou Beina Chuanglian Biotechnology Co., Ltd.
EA.Hy926 cells were taken and inoculated in a 96-well plate at 5×10^4 cells/mL, 100 μL per well, and cultured adherently for 24 hours, then the test compound prepared in DMEM medium was added, and an equal volume of DMEM medium was added in the normal control group, then the cells were cultured at 37° C. for 24 hours, and then the cell supernatant was taken and placed in an EP tube, and centrifuged for 15 min at 3000 r/min and 15° C. The resulting supernatant was transferred to a new EP tube, and then the detection was performed according to the instruction of ELISA kit (purchased from Wuhan Elabscience Biotechnology Co., Ltd., Cat. No. E-EL-0022c), and the detection results were shown in Table 3.

[2] = test system: endothelin (ET-1); assay: Expression of endothelin (ET-1) in EA.Hy926 endothelial cells, detection kit; format: cell-based, human; conditions: 48 h; for expression of endothelin in endothelial cells: Detection result of test compound at low dose (0.4 μM) / expression of endothelin in endothelial cells: Detection result of test compound at medium dose (2 μM) / expression of endothelin in endothelial cells: Detection result of test compound at high dose (10 μM): EA.Hy926 cell supernatant
Procedure: as §1
EA.Hy926 cells were taken and inoculated in a 96-well plate at 5×10^4 cells/mL, 100 μL per well, and cultured adherently for 24 hours, then the test compound prepared in DMEM medium was added, and an equal volume of DMEM medium was added in the normal control group, then the cells were cultured at 37° C. for 48 hours, and then the cell supernatant was taken and placed in an EP tube, and centrifuged at 3000 r/min, 4° C. for 15 min. The resulting cell supernatant was transferred to a new EP tube, diluted twice with culture medium, and detected according to the instruction of the human endothelin detection kit (purchased from Wuhan Boster Biological Engineering Co., Ltd., batch number 59113731009), and the detection results were shown in Table 2.

Compound | expression of prostacyclin in endothelial cells: Detection result of test compound at low dose (0.4 μM) [1] [pg/mL] | expression of prostacyclin in endothelial cells: Detection result of test compound at medium dose (2 μM) [1] [pg/mL] | expression of prostacyclin in endothelial cells: Detection result of test compound at high dose (10 μM) [1] [pg/mL] | expression of endothelin in endothelial cells: Detection result of test compound at low dose (0.4 μM) [2] [pg/mL] | expression of endothelin in endothelial cells: Detection result of test compound at medium dose (2 μM) [2] [pg/mL] | expression of endothelin in endothelial cells: Detection result of test compound at high dose (10 μM) [2] [pg/mL] | effect on the expression of prostacyclin (in words) ([1]; low concentration) | effect on the expression of prostacyclin (in words) ([1]; medium and high concentrations) | effect on the expression and secretion of endothelin (in words) ([2]; high, medium and low doses)
CCCC[C@@H]1CNCCCN1S(=O)(=O)c1cccc2c(O)nccc12 [Compound R-YK1611, (R)-5-((2-butyl-1,4-diazacycloheptan-1-yl)sulfonyl)isoquinolin-1-ol] | 232.61 ± 9.70 | 229.98 ± 11.41 | 249.23 ± 0.75 | 238.20 ± 2.28 | 249.34 ± 7.96 | 235.68 ± 3.34 |  |  | 
COc1nccc2c(S(=O)(=O)N3CCCNC[C@H]3CCC(C)C)cccc12 [Compound R-YK1612, (R)-5-((2-isopentyl-1,4-diazacycloheptan-1-yl)sulfonyl)-1-methoxyisoquinoline] | 269.40 ± 8.89 | 269.35 ± 8.69 | 257.44 ± 4.48 | 232.61 ± 9.70 | 229.98 ± 11.41 | 249.23 ± 0.75 |  |  | 
O=S(=O)(c1cccc2cnccc12)N1CCCNCC1 [Fasudil hydrochloride, reference compound] | 259.07 ± 40.07 | 208.85 ± 37.07 | 184.93 ± 1.09 | 254.29 ± 3.35 | 252.58 ± 3.92 | 325.69 ± 9.78 | promoted the expression of prostacyclin | inhibited the expression | significantly promote the expression and secretion of endothelin
